“Also recorded” adds a separate entry of the source.
Experiments:
Format in all cases: cell-based
[1] = molecular target: T1, FKBP* fused to Nluc (Homo sapiens, UniProt P62942+Q96SW2, F37V); assay: Nluc/Fluc luciferase signal ratio assay of FKBP* degradation in 293FT cells; settings: wild type or CRBN −/− 293FT; indicated concentrations, 4 hours
T1 construct: Nluc (nano luciferase, fusion partner); expressed in transfected cells; host or cells: 293FT cells (wild type or CRBN-/-)
Protocol: FIG. 7A and FIG. 7B are graphs measuring the activity of a panel of dFKBP heterobifunctional compounds in cells expressing FKBP* fused to Nluc. Degradation of FKBP* is measured as a signal ratio (Nluc/Fluc) between NANOluc and firefly luciferase from the same multicistronic transcript in wild type (FIG. 7A) or CRBN −/− (FIG. 7B) 293FT cells treated with indicated concentrations of dFKBPs for 4 hours. A decrease in the signal ratio indicates FKBP* (Nluc) degradation.
In an effort to identify potent and selective dFKPB heterobifunctional compounds, high throughput measurements of targeted FKBP* degradation were measured by surrogate levels of luciferase. Here, FKBP* is exogenously expressed as a multicistronic transcript with two types of luciferase: nano luciferase (NLuc) and firefly luciferase (FLuc) that allow for cell normalized quantification of FKBP* protein levels. Degradation of FKBP* is measured as a signal ration (Nluc/Fluc) in wild type (FIG. 7A) or CRBN −/−(FIG. 7B) 293FT cells treated with indicated concentrations of dFKBPs for 4 hours.

[2] = molecular target: T2, CD19-CAR-dTAG (Homo sapiens, UniProt P62942+Q96SW2, F37V/H95N/M50V/V99I); assay: Immunoblot of Jurkat T-cells expressing CD19-CAR-dTAG; settings: for degradation of CD19-CAR-dTAG, time dependence: 250 nM, indicated time; for degradation of CD19-CAR-dTAG, dose dependence: indicated dose, 4 hours
T2 construct: HA; expressed in transfected cells; host or cells: Jurkat T-cells (lentiviral transduction, blasticidin selection)
Protocol: Jurkat T-cells were transduced with lentivirus expressing CD19-CAR-dTAG. Cells were selected with blasticidin and expanded. Stable expression of CD19-CAR-dTAG was confirmed.
Jurkat T-cells expressing CD19-CAR-dTAG were treated with the indicated dose of dFKBP7 or dFKBP13 for 4 hours.
FIG. 15A and FIG. 15B are immunoblots of cells treated with bi-functional molecules described in the present invention. Jurkat T-cells expressing CD19-CAR-dTAG were treated with 250 nM of dFKBP7 or dFKBP13 for the indicated time.
Jurkat T-cells expressing CD19-CAR-dTAG were treated with 250 nM of dFKBP7 for 4 hours. The dFKBP7 was then removed from the Jurkat cells via washouts and the re-expression of CD19-CAR-dTAG was monitored by immunoblot analysis at the indicated time points.
(§1) FIG. 17A illustrates the experimental design to measure the ability to control the expression CD19-CAR-dTAG in T-cells upon addition and removal of dFKBP7. Jurkat cells expressing CD19-CAR-dTAG were treated with 250 nM of dFKBP7 at the indicated time points (0 and 8 hours). At 4 and 12 hours, the dFKBP7 was washed out of the Jurkat cells. At each indicated timepoint, Jurkat cells were harvest to monitor CD19-CAR-dTAG expression levels via immunoblot analysis. FIG. 17B is the resulting immunoblot from the experimental design in FIG. 17A.
Jurkat T-cells were transduced with lentivirus expressing CD19-CAR-dTAG. Cells were selected with blasticidin and expanded. Stable expression of CD19-CAR-dTAG in Jurkat cells was confirmed by anti-HA western immunoblotting of whole cell lysates.
In an effort to define the optimal concentration of bifunctional molecules to induce degradation of CD19-CAR-dTAG, degradation was measured upon treatment with increasing concentrations of dFKBP7 and dFKBP13. Jurkat T-cells were engineered to express CD19-CAR-dTAG. Cells were treated with the indicated dose of dFKBP7 or dFKBP13 for 4 hours before lysates were prepared for western immunoblot analysis.
To evaluate the kinetic control of targeted degradation of CD19-CAR-dTAG, a fixed concentration of bi-functional molecules dFKBP7 and dFKBP13 were administered at a fixed concentration for increased duration. Jurkat T-cells were engineered to express CD19-CAR-dTAG. Cells were treated with 250 nM dFKBP7 or dFKBP13 for the indicated time before lysates were prepared for immunoblot analysis.
Immunoblot illustrating the kinetics of re-expression of the CD19-CAR-dTAG protein following targeting degradation with dFKBP7. Jurkat T-cells engineered to express CD19-CAR-dTAG were treated with 250 nM of dFKBP7 for 4 hours. The dFKBP7 was then removed from the Jurkat cells via washouts and the re-expression of CD19-CAR-dTAG was monitored by immunoblot analysis at the indicated time points.
as §1, with “engineered to express” for “expressing”, “analysis.” for “analysis. FIG. 17B is the resulting immunoblot from the experimental design in FIG. 17A.”
FIG. 17B is an immunoblot illustrating the ability to toggle on and off expression of CD19-CAR-dTAG as described in FIG. 17A.

[3] = test system: NIH3T3 expressing FKBP* fused to the N-terminus of KRASG12V; assay: Phase contrast imaging of NIH3T3 cells expressing FKBP*-KRASG12V; settings: NIH3T3 expressing dTAG-KRAS; dFKBP13, 24 hours; vs DMSO
Protocol: FIG. 23A, FIG. 23B, FIG. 23C, and FIG. 23D are panels of phase contrast images of control NIH3T3 cells or NIH3T3 expressing FKBP* fused to the N-terminus of KRASG12V treated with DMSO or dFKBP13 for 24 hours.

[4] = molecular target: T3, FKBP* (Homo sapiens, UniProt P62942, F37V); assay: Immunoblot of 293FT cells (CRBN-WT) expressing FKBP*, pretreated with Carfilzomib, MLN4924 or Lenalidomide before dFKBP13
T3 construct: HA; expressed in transfected cells; host or cells: 293FT cells (CRBN-WT or CRBN-/-)
Protocol: (§2) 293FT cells (CRBN-WT) expressing FKBP* were pretreated with luM Carfilzomib (proteasome inhibitor), 0.5 uM MLN4924 (neddylation inhibitor), and 10 uM Lenalidomide (CRBN binding ligand) for two hours prior to a 4 hour treatment with dFKBP13.
as §2, with “were engineered to express FKBP*. Cells” for “expressing FKBP*”, “dFKBP13. Lysates were prepared and western immunoblot analysis performed.” for “dFKBP13.”

T2 sequence (P62942 with tags, fused parts or gaps F37V/M50V/H95N/V99I limits assumed): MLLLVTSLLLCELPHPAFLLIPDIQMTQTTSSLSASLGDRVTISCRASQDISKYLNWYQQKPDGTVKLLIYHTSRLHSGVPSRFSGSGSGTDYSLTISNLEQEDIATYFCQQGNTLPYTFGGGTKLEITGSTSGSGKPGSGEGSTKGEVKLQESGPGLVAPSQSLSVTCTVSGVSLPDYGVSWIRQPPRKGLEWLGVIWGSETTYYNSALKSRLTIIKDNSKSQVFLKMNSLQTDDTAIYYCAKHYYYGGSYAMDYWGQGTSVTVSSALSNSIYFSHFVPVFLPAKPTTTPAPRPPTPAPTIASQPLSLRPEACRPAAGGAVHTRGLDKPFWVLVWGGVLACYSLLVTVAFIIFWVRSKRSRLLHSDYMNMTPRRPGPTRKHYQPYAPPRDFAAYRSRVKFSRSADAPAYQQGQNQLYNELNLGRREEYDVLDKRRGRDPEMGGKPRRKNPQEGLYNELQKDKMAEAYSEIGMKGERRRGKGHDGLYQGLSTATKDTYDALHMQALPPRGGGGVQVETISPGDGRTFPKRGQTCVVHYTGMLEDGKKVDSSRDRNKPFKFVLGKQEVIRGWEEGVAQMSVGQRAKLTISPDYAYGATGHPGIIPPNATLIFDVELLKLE
T2 sequence (Q96SW2 whole entry): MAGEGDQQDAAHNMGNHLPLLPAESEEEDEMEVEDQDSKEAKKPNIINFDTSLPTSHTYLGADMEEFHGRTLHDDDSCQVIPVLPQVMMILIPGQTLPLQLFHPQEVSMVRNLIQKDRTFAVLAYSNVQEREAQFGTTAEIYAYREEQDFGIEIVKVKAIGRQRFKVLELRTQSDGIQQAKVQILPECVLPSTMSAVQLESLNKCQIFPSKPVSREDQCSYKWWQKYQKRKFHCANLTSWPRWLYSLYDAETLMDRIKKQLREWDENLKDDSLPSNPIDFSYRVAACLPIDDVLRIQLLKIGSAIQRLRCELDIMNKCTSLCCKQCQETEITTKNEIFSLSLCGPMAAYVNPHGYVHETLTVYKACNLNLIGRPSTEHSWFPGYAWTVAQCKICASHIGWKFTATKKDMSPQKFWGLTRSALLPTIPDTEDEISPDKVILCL
T2 sequence (Q16531 whole entry partner): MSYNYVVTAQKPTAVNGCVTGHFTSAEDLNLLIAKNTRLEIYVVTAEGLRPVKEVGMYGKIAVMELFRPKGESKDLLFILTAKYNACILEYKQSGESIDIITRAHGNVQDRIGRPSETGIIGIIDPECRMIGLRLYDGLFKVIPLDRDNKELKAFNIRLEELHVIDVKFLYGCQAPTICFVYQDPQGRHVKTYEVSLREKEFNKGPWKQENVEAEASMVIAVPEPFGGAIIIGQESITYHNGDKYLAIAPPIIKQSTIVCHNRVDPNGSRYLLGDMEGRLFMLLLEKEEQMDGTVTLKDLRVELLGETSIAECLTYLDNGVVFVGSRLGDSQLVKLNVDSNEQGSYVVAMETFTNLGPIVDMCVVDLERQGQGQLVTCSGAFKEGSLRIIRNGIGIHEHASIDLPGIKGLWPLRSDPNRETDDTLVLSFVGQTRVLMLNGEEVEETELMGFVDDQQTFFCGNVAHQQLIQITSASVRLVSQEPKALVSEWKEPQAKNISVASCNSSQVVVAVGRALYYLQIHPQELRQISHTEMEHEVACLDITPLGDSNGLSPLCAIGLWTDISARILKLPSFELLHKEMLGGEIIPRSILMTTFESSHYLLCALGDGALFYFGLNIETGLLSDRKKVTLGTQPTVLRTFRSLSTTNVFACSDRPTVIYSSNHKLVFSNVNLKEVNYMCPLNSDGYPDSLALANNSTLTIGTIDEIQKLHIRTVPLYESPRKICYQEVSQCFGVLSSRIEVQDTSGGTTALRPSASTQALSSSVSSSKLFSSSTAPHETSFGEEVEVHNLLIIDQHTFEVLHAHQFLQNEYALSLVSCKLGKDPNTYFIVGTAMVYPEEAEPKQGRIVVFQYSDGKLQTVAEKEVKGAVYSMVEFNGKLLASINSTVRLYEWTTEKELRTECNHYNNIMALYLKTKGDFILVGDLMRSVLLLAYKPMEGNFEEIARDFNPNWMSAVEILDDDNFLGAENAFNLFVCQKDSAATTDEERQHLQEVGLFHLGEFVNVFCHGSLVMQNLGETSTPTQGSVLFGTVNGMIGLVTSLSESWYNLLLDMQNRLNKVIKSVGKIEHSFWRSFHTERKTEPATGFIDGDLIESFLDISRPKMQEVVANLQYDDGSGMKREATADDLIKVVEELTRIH
T3 sequence (P62942 whole entry F37V): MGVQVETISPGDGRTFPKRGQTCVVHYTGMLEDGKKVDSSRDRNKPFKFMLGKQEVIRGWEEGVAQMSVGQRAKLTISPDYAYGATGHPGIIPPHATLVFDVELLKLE
T1 sequence (P62942 2-108 F37V): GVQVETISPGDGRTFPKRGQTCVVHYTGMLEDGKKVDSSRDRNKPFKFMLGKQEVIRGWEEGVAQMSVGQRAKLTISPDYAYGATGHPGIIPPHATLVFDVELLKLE
T1 sequence (Q96SW2 whole entry, the tested form may be a part): as the sequence (Q96SW2 whole entry) above
T1 sequence (Q16531 whole entry partner, the tested form may be a part): as the sequence (Q16531 whole entry partner) above

| Structure (SMILES) | FKBP* (Nluc) degradation, signal ratio (Nluc/Fluc) [1] | re-expression of CD19-CAR-dTAG after washout ([2]; Jurkat T-cells, 250 nM dFKBP7 4 hours, then removed via washouts) | degradation of CD19-CAR-dTAG, time dependence ([2]; Jurkat T-cells) | degradation of CD19-CAR-dTAG, dose dependence ([2]; Jurkat T-cells) | rheostat chemical control of CD19-CAR-dTAG expression ([2]; Jurkat cells, 250 nM dFKBP7 at 0 and 8 hours, washed out at 4 and 12 hours) | morphological change of cells [3] | degradation of HA-tagged FKBP* by dFKBP13 after MLN4924 pretreatment ([4]; 0.5 uM MLN4924 (neddylation inhibitor) two hours prior to 4 hour dFKBP13) | degradation of HA-tagged FKBP* by dFKBP13 after Carfilzomib pretreatment ([4]; 1 uM Carfilzomib (proteasome inhibitor) two hours prior to 4 hour dFKBP13) | degradation of FKBP* by dFKBP13 after Lenalidomide pretreatment ([4]; 10 uM Lenalidomide (CRBN binding ligand) two hours prior to 4 hour dFKBP13) |
| --- | --- | --- | --- | --- | --- | --- | --- | --- | --- |
| CC[C@H](C(=O)N1CCCC[C@H]1C(=O)O[C@H](CCc1ccc(OC)c(OC)c1)c1cccc(OCC(=O)NCCCOCCOCCOCCCNC(=O)COc2cccc3c2C(=O)N(C2CCC(=O)NC2=O)C3=O)c1)c1cc(OC)c(OC)c(OC)c1 (some centres unmarked) [dFKBP7] | effectively degrade FKBP* in a cereblon dependent manner | protein levels recovered following removal | time-dependent degradation | dose-dependent degradation | allows for exquisite chemical control of CD19-CAR-dTAG protein levels allowing for modulation within hours | – | – | – | – |
| CC[C@H](C(=O)N1CCCC[C@H]1C(=O)O[C@H](CCc1ccc(OC)c(OC)c1)c1cccc(OCC(=O)NCCCCCCOc2cccc3c2C(=O)N(C2CCC(=O)NC2=O)C3=O)c1)c1cc(OC)c(OC)c(OC)c1 (some centres unmarked) [dFKBP13] | – | – | time-dependent degradation | dose-dependent degradation | – | cells morphologically revert back to the wild type (DMSO control) state; also recorded: morphological change induced | rescued HA-tagged FKBP* | rescued by the proteasome inhibitor Carfilzomib | abolished dFKBP13-dependent FKBP* degradation |

Source: patent US11046954B2, “Targeted protein degradation to attenuate adoptive T-cell therapy associated adverse inflammatory responses” (Dana-Farber Cancer Institute, Inc., priority 2015, dated 2021)
